Source: patent US20190338290A1, “TREATMENT OF SARCOMA” (MEMORIAL SLOAN KETTERING CANCER CENTER, priority 2017, published 2019)

Test system: SS18-SSX / KDM2B co-localization
Assay: Proximity ligation assay (PLA) of SS18-SSX and KDM2B
Assay type: cell-based, human
Conditions: HS-SY-II cells, SS18-SSX knockdown
Description: Indicated synovial sarcoma cell lines were seeded at 3×10^4 cells/well in culture treated 8-well chamber slides and treated as previously described (Laporte et al., 2016). Primary antibodies for PLA were used at 1/1000 dilution: SS18 (Santa-Cruz Biotechnologies, sc-28698), KDM2B (Abnova, H00084678-M09), HA (Santa-Cruz Biotechnologies, sc-805). Proximity ligation was performed utilizing the Duolink® In Situ Red Starter Kit Mouse/Rabbit (Sigma-Aldrich, DUP92101-1KT) according to the manufacturer's protocol. Fluorescence was detected using a Zeiss Axioplan2 microscope at 40×. Images were quantified in triplicate using ImageJ software (NIH) as foci per nucleus, defined as the number of interaction points counted per nucleus. For PLA analysis upon SS18-SSX knockdown, duplex oligo (sense, […]; antisense, […]) SS18-SSX siRNAs were designed to target the SSX portion of SS18-SSX using the Integrated. DNA Technologies RNA interference (RNAi) design tool, and synthesized by Integrated DNA Technologies (IDT) as previously described (Lubieniecka et al., 2008). HS-SY-II cells were seeded in 6-well plates. At 60% confluence, cells were transfected with 50 pmol siSS18-SSX and 9 μL Lipofectamine RNAiMAX transfection reagent (Invitrogen) in Opti-MEM serum free media (Life Technologies). […]

SSX targeting siRNA: duplex oligo siRNA (sense CAAGAAGCCAGCAGAGGAATT; antisense UUCCUCUGCUGGCUUCUUGTT) designed to target the SSX portion of SS18-SSX (chemistry not given here)
PLA signal (SS18 and KDM2B antibodies): abolished
